Laboratory results reported in patent US12016837B2, “Halogenated esters of cyclopropanated unsaturated fatty acids for use in the treatment of neurodegenerative diseases” (Synaptogenix, Inc., priority 2013, dated 2024).

Key:
PKC-ε [1] = target: T1, PKC-ε (Homo sapiens, UniProt Q02156); assay: PKC-ε activation: incorporation of 32P-inorganic phosphate from gamma-32P-ATP; type: biochemical
T1 sequence (Q02156 1-737): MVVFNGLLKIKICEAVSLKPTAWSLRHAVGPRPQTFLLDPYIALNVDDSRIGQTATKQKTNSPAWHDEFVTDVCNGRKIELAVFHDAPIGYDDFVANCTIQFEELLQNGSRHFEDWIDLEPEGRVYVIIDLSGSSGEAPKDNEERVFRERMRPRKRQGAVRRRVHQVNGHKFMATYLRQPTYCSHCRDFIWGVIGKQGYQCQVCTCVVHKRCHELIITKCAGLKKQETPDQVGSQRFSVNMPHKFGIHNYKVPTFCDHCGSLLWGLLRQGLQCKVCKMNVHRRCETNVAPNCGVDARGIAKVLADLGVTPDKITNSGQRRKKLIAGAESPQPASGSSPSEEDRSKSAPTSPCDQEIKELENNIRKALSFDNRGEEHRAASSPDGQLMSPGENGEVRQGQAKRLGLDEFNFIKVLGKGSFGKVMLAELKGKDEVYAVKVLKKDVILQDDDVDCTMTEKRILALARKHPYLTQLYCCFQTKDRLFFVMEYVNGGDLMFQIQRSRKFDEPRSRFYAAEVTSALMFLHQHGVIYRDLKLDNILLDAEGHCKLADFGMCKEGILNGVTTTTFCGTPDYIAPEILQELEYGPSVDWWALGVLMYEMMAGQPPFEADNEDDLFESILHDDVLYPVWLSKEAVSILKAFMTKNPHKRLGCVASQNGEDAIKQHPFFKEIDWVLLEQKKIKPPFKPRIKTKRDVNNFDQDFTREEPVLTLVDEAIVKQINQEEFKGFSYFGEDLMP
Method: Example 4: PKC-ε activation by DCPLA-EtF3 versus DCPLA methyl ester. […] Sen A, Alkon D L, Nelson T J, J. Biol. Chem. 287(19): 15947-58 (2012). PKC-ε activation by DCPLA-EtF3 was measured by measuring the incorporation of 32P-inorganic phosphate from gamma-32P-ATP by recombinant human PKC-ε.
Example 5: PKC-ε activation by 1,1,1-trifluoropropan-2-yl DCPLA. PKC-ε activation by 1,1,1-trifluoropropan-2-yl DCPLA was measured by measuring the incorporation of 32P-inorganic phosphate from gamma-32P-ATP by recombinant human PKC-ε. […] Activation started at 0.01 nM and was biphasic, consistent with a low and a high affinity binding site for DCPLA.

PKC-ε [2] = target: T1, PKC-ε; conditions: earlier research, cited from earlier work

Q: Which results are given for `CCCCCC1CC1CC1CC1CCCCCCCC(=O)OC(C)C(F)(F)F` (stereo not drawn) [1,1,1-trifluoropropan-2-yl DCPLA]?
A: concentration at which PKC-ε activation started (PKC-ε [1]; FIG. 2): 10 pM; potency compared to unmodified DCPLA (PKC-ε [1]; FIG. 2, comparison in words): superior potency; shape of PKC-ε activation response (PKC-ε [1]; FIG. 2, consistent with a low and a high affinity binding site): biphasic

Q: Which results are given for `CCCCCC1CC1CC1CC1CCCCCCCC(=O)OC` (stereo not drawn) [DCPLA methyl ester]?
A: concentration of maximum PKC-ε activation (PKC-ε [2]): 0.1 µM; potency as PKC-ε activator relative to unesterified DCPLA (PKC-ε [2]; more potent than unesterified DCPLA): approximately 100 times

Q: Which “concentration of peak PKC-ε activation” value (PKC-ε [1]; FIG. 1) does the source give for `CCCCCC1CC1CC1CC1CCCCCCCC(=O)OCC(F)(F)F` (stereo not drawn) [DCPLA-EtF3, DCPLA-trifluoroethyl ester] here?
A: Its value is 0.1 to 1 nM.

Q: What about the “extent of PKC-ε activation compared with DCPLA methyl ester” value (PKC-ε [1]; FIG. 1, comparison in words) of the same compound?
A: The value was “approximately the same extent of activation as DCPLA methyl ester”.

Q: What about the “potency as PKC-ε activator relative to DCPLA methyl ester” value (PKC-ε [1]; FIG. 1, more potent than DCPLA methyl ester) of the same compound?
A: The value was “approximately 1000 times”.

Q: What about the “potency compared with bryostatin-1” value (PKC-ε [1]; comparison in words) of the same compound?
A: Its value is “approximately equal to that of bryostatin-1”.
